Here are results for one compound from US8497367B2, “Sucralose purification process” (Tate & Lyle Technology Limited, priority 2008, dated 2013).

SMILES strings stand for the structures.

The nature of the data set: Distribution coefficient K of sucralose between ethyl acetate (light phase) and aqueous DMAHCl/NaCl solution (heavy phase). As to conditions: about 37 g ethyl acetate. Type of data set: physicochemical. On the procedure:
The solutions were all clear and colorless at room temperature.
Each sample was shaken with about 37 g of ethyl acetate (EA). The mixture was allowed to settle, resulting in the formation of a heavy phase (aqueous) and a light phase (EA based). The weights of these respective phases were recorded and each phase was analysed for its sucralose content. The dry solids content of each phase was also measured by evaporation to dryness (moisture balance).
From the data presented, it is possible to calculate the distribution coefficient K for each experiment, where K is defined as: K=(Wt % Sucralose in light phase)/(Wt % sucralose in heavy phase)

Take `OC[C@H]1O[C@H](O[C@]2(CCl)O[C@H](CCl)[C@@H](O)[C@@H]2O)[C@H](O)[C@@H](O)[C@H]1Cl` [Sucralose, 4,1′,6′-trichloro-4,1′,6′-trideoxygalactosucrose]: the “Calculated K / Actual K = (Wt % Sucralose in light phase)/(Wt % sucralose in heavy phase)” value reads like this: (Exp #3, feed wt % on water: DMAHCL 0.36%, NaCl 9.87%, sucralose 27.58%) 1.38; (Exp #4, feed wt % on water: DMAHCL 0.41%, NaCl 2.10%, sucralose 27.06%) 0.93; (Exp #5, feed wt % on water: DMAHCL 5.07%, NaCl 9.75%, sucralose 27.31%) 1.09; (Exp #8, feed wt % on water: DMAHCL 4.99%, NaCl 2.04%, sucralose 27.01%) 0.83; (Exp #9, feed wt % on water: DMAHCL 2.55%, NaCl 5.15%, sucralose 13.98%) 0.76.
